Results reported in US5278326A, “Substituted beta-ketoamide ACAT inhibitors” (Warner-Lambert Company, priority 1991, dated 1994).

Biological target: T1, acyl-CoA: cholesterol acyltransferase (ACAT) (Oryctolagus cuniculus, UniProt G1SFD9)
T1 construct: in a tissue preparation containing rabbit intestinal microsomes; from tissue; host or cells: rabbit intestinal microsomes
T1 sequence (G1SFD9 1-524): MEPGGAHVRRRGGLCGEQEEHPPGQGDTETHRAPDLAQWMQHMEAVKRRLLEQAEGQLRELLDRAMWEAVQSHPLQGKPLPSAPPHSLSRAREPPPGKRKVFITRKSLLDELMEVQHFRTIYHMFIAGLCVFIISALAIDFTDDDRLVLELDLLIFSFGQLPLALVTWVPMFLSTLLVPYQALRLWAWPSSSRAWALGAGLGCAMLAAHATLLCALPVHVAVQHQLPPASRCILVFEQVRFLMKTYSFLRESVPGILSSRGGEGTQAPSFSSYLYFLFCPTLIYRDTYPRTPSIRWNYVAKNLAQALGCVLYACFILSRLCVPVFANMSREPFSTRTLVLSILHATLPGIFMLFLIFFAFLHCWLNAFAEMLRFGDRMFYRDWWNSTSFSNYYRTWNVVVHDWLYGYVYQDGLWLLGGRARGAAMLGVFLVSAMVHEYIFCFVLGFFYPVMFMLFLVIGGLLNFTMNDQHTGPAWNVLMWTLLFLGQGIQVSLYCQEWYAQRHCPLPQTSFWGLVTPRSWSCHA
Assay: in vitro inhibition of ACAT (radiolabeled cholesterol oleate formed from radiolabeled oleic acid, rabbit intestinal microsomes)
Format: biochemical
Conditions: tissue preparation containing rabbit intestinal microsomes, read-out: IC50 (concentration of test compound required to inhibit the activity of the enzyme by 50%)
Procedure: The ability of representative compounds of the present invention to inhibit ACAT was measured using an in vitro test more fully described in F. J. Field and R. G. Salone, Biochemica et Biophysica 712:557-570 (1982). The test assesses the ability of a test compound to inhibit the acylation of cholesterol by oleic acid by measuring the amount of radiolabeled cholesterol oleate formed from radiolabeled oleic acid in a tissue preparation containing rabbit intestinal microsomes.
The data appear in Table 1 where they are expressed as IC50 values; i.e., the concentration of test compound required to inhibit the activity of the enzyme by 50%.

SMILES | IC50 [µM]
CCCCCCCCNC(=O)CC(=O)c1c2ccccc2cc2ccccc12 [Example 13, N-octyl-β-oxo-9-anthracenepropanamide] | > 1
CCCCCCCCCCCC(=O)C(C)(C)C(=O)N(C)c1c(OC)cc(OC)cc1OC [Example 10, N,2,2-trimethyl-3-oxo-N-(2,4,6-trimethoxyphenyl)-tetradecanamide] | > 1
CCCCCCCCNC(=O)CC(=O)c1ccc(F)cc1F [Example 12, 2,4-difluoro-N-octyl-β-oxo-benzenepropanamide] | > 1

Stronger by IC50, values ahead:

IC50 [µM] | SMILES
0.057 | CC(C)c1cccc(C(C)C)c1NC(=O)CC(=O)CCCCCCCCCCCOC1CCCCO1 (centres unmarked) [Example 6, N-[2,6-bis(1-methylethyl)phenyl]-3-oxo-14-[(tetrahydro-2H-pyran-2-yl)oxy]-tetradecanamide]
0.23 | CC(C)c1cccc(C(C)C)c1NC(=O)CC(=O)CCCCCCCCCCCO [Example 7, N-[2,6-bis(1-methylethyl)phenyl]-14-hydroxy-3-oxo-tetradecanamide]
